Test system: mongrel dogs
Assay: circulatory-pharmacological effectiveness on the narcotised dog, intravenous administration
Type: in vivo

## Nc1ncnc2c1ncn2[C@H]1CO[C@H]2[C@@H]1OC[C@@H]2O[N+](=O)[O-] [1c/2c, 5-(9-Adenyl)-5-desoxy-1.4;3.6-dianhydro-L-iditol 2-nitrate]
2 min after i.v. 1 mg/kg
  APdiast: diastolic aorta pressure: 74.1 mm.Hg
  APsyst: systolic aorta pressure: 115.3 mm.Hg
  BFFem: blood flow in the A. femoralis, referred to 20 kg. body weight: 35.3 mL/min
  HF: heart frequency: 158.7 min⁻¹
  HLL: heart capacity left, referred to 20 kg. body weight: 0.75 W
  HLR: heart capacity right, referred to 20 kg. body weight: 115.8 mW
  HZV: heart minute volume, referred to 20 kg. body weight: 3.91 L/min
  LVEDP: end diastolic pressure in the left ventricle: 2.62 mm.Hg
  PAP: average pressure in the A. pulmonalis: 15.6 ±2.1 mm.Hg
  PRA: pressure in the right atrium: 2.06 mm.Hg
  SV: beat volume, referred to 20 kg. body weight: 25.6 mL
  WAP: pulmonalis resistance, referred to 20 kg. body weight: 0.45 U
  WFem: femoralis resistance, referred to 20 kg. body weight: 0.35 KU
  WTP: total peripheral resistance, referred to 20 kg. body weight: 2.93 U
  dp/dt: rate of pressure increase in the left ventricle: 2606.2 mm.Hg/sec.
5 min after i.v. 1 mg/kg
  APdiast: diastolic aorta pressure: 82.5 mm.Hg
  APsyst: systolic aorta pressure: 120.9 mm.Hg
  BFFem: blood flow in the A. femoralis, referred to 20 kg. body weight: 36.6 mL/min
  HF: heart frequency: 148.7 min⁻¹
  HLL: heart capacity left, referred to 20 kg. body weight: 0.74 W
  HLR: heart capacity right, referred to 20 kg. body weight: 87.6 mW
  HZV: heart minute volume, referred to 20 kg. body weight: 3.61 L/min
  LVEDP: end diastolic pressure in the left ventricle: 2.91 mm.Hg
  PAP: average pressure in the A. pulmonalis: 13.7 ±1.4 mm.Hg
  PRA: pressure in the right atrium: 2.81 mm.Hg
  SV: beat volume, referred to 20 kg. body weight: 26.0 mL
  WAP: pulmonalis resistance, referred to 20 kg. body weight: 0.40 U
  WFem: femoralis resistance, referred to 20 kg. body weight: 0.36 KU
  WTP: total peripheral resistance, referred to 20 kg. body weight: 3.42 U
  dp/dt: rate of pressure increase in the left ventricle: 2343.7 mm.Hg/sec.
7 min after i.v. 1 mg/kg
  APdiast: diastolic aorta pressure: 83.4 mm.Hg
  APsyst: systolic aorta pressure: 121.9 mm.Hg
  BFFem: blood flow in the A. femoralis, referred to 20 kg. body weight: 38.6 mL/min
  HF: heart frequency: 146.7 min⁻¹
  HLL: heart capacity left, referred to 20 kg. body weight: 0.72 W
  HLR: heart capacity right, referred to 20 kg. body weight: 89.3 mW
  HZV: heart minute volume, referred to 20 kg. body weight: 3.51 L/min
  LVEDP: end diastolic pressure in the left ventricle: 2.91 mm.Hg
  PAP: average pressure in the A. pulmonalis: 14.1 ±1.6 mm.Hg
  PRA: pressure in the right atrium: 2.81 mm.Hg
  SV: beat volume, referred to 20 kg. body weight: 25.6 mL
  WAP: pulmonalis resistance, referred to 20 kg. body weight: 0.42 U
  WFem: femoralis resistance, referred to 20 kg. body weight: 0.34 KU
  WTP: total peripheral resistance, referred to 20 kg. body weight: 3.59 U
  dp/dt: rate of pressure increase in the left ventricle: 2362.5 mm.Hg/sec.
10 min after i.v. 1 mg/kg
  APdiast: diastolic aorta pressure: 83.4 mm.Hg
  APsyst: systolic aorta pressure: 120.9 mm.Hg
  BFFem: blood flow in the A. femoralis, referred to 20 kg. body weight: 39.5 mL/min
  HF: heart frequency: 141.2 min⁻¹
  HLL: heart capacity left, referred to 20 kg. body weight: 0.72 W
  HLR: heart capacity right, referred to 20 kg. body weight: 88.8 mW
  HZV: heart minute volume, referred to 20 kg. body weight: 3.5 L/min
  LVEDP: end diastolic pressure in the left ventricle: 3.20 mm.Hg
  PAP: average pressure in the A. pulmonalis: 14.2 ±1.6 mm.Hg
  PRA: pressure in the right atrium: 2.95 mm.Hg
  SV: beat volume, referred to 20 kg. body weight: 26.4 mL
  WAP: pulmonalis resistance, referred to 20 kg. body weight: 0.42 U
  WFem: femoralis resistance, referred to 20 kg. body weight: 0.33 KU
  WTP: total peripheral resistance, referred to 20 kg. body weight: 3.57 U
  dp/dt: rate of pressure increase in the left ventricle: 2268.7 mm.Hg/sec.
15 min after i.v. 1 mg/kg
  APdiast: diastolic aorta pressure: 80.6 mm.Hg
  APsyst: systolic aorta pressure: 120.4 mm.Hg
  BFFem: blood flow in the A. femoralis, referred to 20 kg. body weight: 39.9 mL/min
  HF: heart frequency: 133.0 min⁻¹
  HLL: heart capacity left, referred to 20 kg. body weight: 0.72 W
  HLR: heart capacity right, referred to 20 kg. body weight: 87.3 mW
  HZV: heart minute volume, referred to 20 kg. body weight: 3.61 L/min
  LVEDP: end diastolic pressure in the left ventricle: 3.37 mm.Hg
  PAP: average pressure in the A. pulmonalis: 14.0 ±1.9 mm.Hg
  PRA: pressure in the right atrium: 3.24 mm.Hg
  SV: beat volume, referred to 20 kg. body weight: 29.3 mL
  WAP: pulmonalis resistance, referred to 20 kg. body weight: 0.40 U
  WFem: femoralis resistance, referred to 20 kg. body weight: 0.32 KU
  WTP: total peripheral resistance, referred to 20 kg. body weight: 3.41 U
  dp/dt: rate of pressure increase in the left ventricle: 2250.0 mm.Hg/sec.
20 min after i.v. 1 mg/kg
  APdiast: diastolic aorta pressure: 79.1 mm.Hg
  APsyst: systolic aorta pressure: 121.5 mm.Hg
  BFFem: blood flow in the A. femoralis, referred to 20 kg. body weight: 41.2 mL/min
  HF: heart frequency: 129.7 min⁻¹
  HLL: heart capacity left, referred to 20 kg. body weight: 0.72 W
  HLR: heart capacity right, referred to 20 kg. body weight: 87.7 mW
  HZV: heart minute volume, referred to 20 kg. body weight: 3.66 L/min
  LVEDP: end diastolic pressure in the left ventricle: 3.56 mm.Hg
  PAP: average pressure in the A. pulmonalis: 13.8 ±1.7 mm.Hg
  PRA: pressure in the right atrium: 3.30 mm.Hg
  SV: beat volume, referred to 20 kg. body weight: 30.0 mL
  WAP: pulmonalis resistance, referred to 20 kg. body weight: 0.37 U
  WFem: femoralis resistance, referred to 20 kg. body weight: 0.31 KU
  WTP: total peripheral resistance, referred to 20 kg. body weight: 3.32 U
  dp/dt: rate of pressure increase in the left ventricle: 2231.2 mm.Hg/sec.
25 min after i.v. 1 mg/kg
  APdiast: diastolic aorta pressure: 80.6 mm.Hg
  APsyst: systolic aorta pressure: 122.8 mm.Hg
  BFFem: blood flow in the A. femoralis, referred to 20 kg. body weight: 42.2 mL/min
  HF: heart frequency: 125.7 min⁻¹
  HLL: heart capacity left, referred to 20 kg. body weight: 0.74 W
  HLR: heart capacity right, referred to 20 kg. body weight: 90.0 mW
  HZV: heart minute volume, referred to 20 kg. body weight: 3.7 L/min
  LVEDP: end diastolic pressure in the left ventricle: 4.03 mm.Hg
  PAP: average pressure in the A. pulmonalis: 14.0 ±1.8 mm.Hg
  PRA: pressure in the right atrium: 3.28 mm.Hg
  SV: beat volume, referred to 20 kg. body weight: 31.3 mL
  WAP: pulmonalis resistance, referred to 20 kg. body weight: 0.36 U
  WFem: femoralis resistance, referred to 20 kg. body weight: 0.31 KU
  WTP: total peripheral resistance, referred to 20 kg. body weight: 3.33 U
  dp/dt: rate of pressure increase in the left ventricle: 2175.0 mm.Hg/sec.
30 min after i.v. 1 mg/kg
  APdiast: diastolic aorta pressure: 79.7 mm.Hg
  APsyst: systolic aorta pressure: 122.8 mm.Hg
  BFFem: blood flow in the A. femoralis, referred to 20 kg. body weight: 43.9 mL/min
  HF: heart frequency: 122.7 min⁻¹
  HLL: heart capacity left, referred to 20 kg. body weight: 0.73 W
  HLR: heart capacity right, referred to 20 kg. body weight: 84.9 mW
  HZV: heart minute volume, referred to 20 kg. body weight: 3.63 L/min
  LVEDP: end diastolic pressure in the left ventricle: 4.31 mm.Hg
  PAP: average pressure in the A. pulmonalis: 14.1 ±1.8 mm.Hg
  PRA: pressure in the right atrium: 3.52 mm.Hg
  SV: beat volume, referred to 20 kg. body weight: 31.6 mL
  WAP: pulmonalis resistance, referred to 20 kg. body weight: 0.36 U
  WFem: femoralis resistance, referred to 20 kg. body weight: 0.29 KU
  WTP: total peripheral resistance, referred to 20 kg. body weight: 3.32 U
  dp/dt: rate of pressure increase in the left ventricle: 2184.4 mm.Hg/sec.

Source: patent US4479951A, “1.4;3.6-Dianhydrohexitol nitrates substituted by purine bases, processes for their preparation and pharmaceutical compositions” (Dr. Willmar Schwabe GmbH & Co., priority 1980, dated 1984)
